# In patent US12441768B2, “Compositions and methods for treating endometriosis” (EndoMet Biosciences, Inc., priority 2018, dated 2025):
# Where a SMILES comes first, the peptide text is derived from it. The star is where a group is joined. Bn = c1ccc(C*)cc1
# Legend:
# [1] = biological target: Wnt-responsive promoter (TCF/LEF); assay: Wnt-dependent luciferase reporter assay; format: cell-based, murine
# Outline: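 Murine 3T3 fibroblasts carrying a TCF/LEF-driven luciferase reporter, stimulated with Wnt3a in the presence of increasing peptide concentrations or vehicle. Luminescence inhibition gave EC50 values in uM.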
# [2] = % Viability non-Wnt responsive cells
# β-catenin = biological target: T1, β-catenin (Homo sapiens, UniProt P35222); assay: KD50 measurement using competitive fluorescence polarization (FP) with labelled TCF4; format: binding; conditions: fluorescence polarization, β-catenin; for Kd: read-out: β-Cat FP KD
# T1 sequence (P35222 1-781): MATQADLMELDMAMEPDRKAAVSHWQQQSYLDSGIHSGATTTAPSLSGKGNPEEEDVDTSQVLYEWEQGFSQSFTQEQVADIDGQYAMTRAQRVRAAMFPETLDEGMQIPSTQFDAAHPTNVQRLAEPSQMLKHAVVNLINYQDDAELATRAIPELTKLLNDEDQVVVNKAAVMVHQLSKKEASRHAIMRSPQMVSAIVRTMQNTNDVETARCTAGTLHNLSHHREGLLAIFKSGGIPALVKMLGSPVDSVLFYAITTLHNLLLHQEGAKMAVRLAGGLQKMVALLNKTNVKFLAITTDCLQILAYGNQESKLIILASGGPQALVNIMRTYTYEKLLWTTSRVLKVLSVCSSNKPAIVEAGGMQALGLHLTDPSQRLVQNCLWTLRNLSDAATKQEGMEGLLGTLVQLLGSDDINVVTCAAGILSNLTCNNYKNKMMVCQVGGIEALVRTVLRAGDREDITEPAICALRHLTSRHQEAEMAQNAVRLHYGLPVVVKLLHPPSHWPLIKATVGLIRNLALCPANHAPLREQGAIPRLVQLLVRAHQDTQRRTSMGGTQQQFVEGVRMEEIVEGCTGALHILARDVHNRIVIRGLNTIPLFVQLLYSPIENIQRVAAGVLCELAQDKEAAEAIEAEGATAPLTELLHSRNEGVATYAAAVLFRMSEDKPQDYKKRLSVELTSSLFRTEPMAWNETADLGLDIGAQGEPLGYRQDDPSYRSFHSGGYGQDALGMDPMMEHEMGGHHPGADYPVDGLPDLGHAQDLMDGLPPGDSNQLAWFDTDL
# Outline: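 5 nM labelled TCF4 was combined with 100 nM β-catenin at room temperature, then inhibitor was titrated in serial dilutions from 10 nM to 30 uM. Polarization was read at excitation 470 nm, emission 520 nm; displacement lowers the signal. Three independent experiments.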
SMILES,EC50 [1] [µM],viability [2] [%],Kd (β-catenin) [µM],β-Cat FP Hill slope (β-catenin)
CC[C@H](C)[C@H](NC(=O)[C@H](CC(C)C)NC(=O)[C@@H](NC(=O)[C@H](Cc1c[nH]c2ccccc12)NC(=O)[C@@H](N)CCSC)[C@@H](C)CC)C(=O)N[C@@H](CCO)C(=O)N[C@@H](Cc1ccccc1)C(=O)N[C@@H](Cc1c[nH]c2ccccc12)C(=O)NCC(=O)O [compound 144] (HELM PEPTIDE1{M.W.I.L.I.[O=C([C@H](CCO)N[*:1])[*:2]].F.W.G}$$$$V2.0),< 7.5,106,> 30,
CC[C@H](C)[C@H](NC(=O)[C@H](CC(C)C)NC(=O)[C@H](Cc1ccccc1)NC(=O)[C@H](Cc1c[nH]c2ccccc12)NC(=O)[C@@H](N)CCSC)C(=O)N[C@@H](CS)C(=O)N[C@@H](Cc1c[nH]cn1)C(=O)N[C@@H](Cc1c[nH]c2ccccc12)C(=O)NCC(=O)O [compound 145] (H-MWFLICHWG-OH),7.5 to 15,107,1 to 10,0.7
CC[C@H](C)[C@H](NC(=O)[C@H](CC(C)C)NC(=O)[C@@H](NC(=O)[C@H](Cc1c[nH]c2ccccc12)NC(=O)[C@@H](N)CCSC)[C@@H](C)CC)C(=O)N[C@@H](COCc1ccccc1)C(=O)N[C@@H](Cc1ccccc1)C(=O)N[C@@H](Cc1c[nH]c2ccccc12)C(=O)NCC(=O)O [compound 146] (H-MWILIS(Bn)FWG-OH),> 30,99.1,> 30,
"CC[C@H](C)[C@@H]1NC(=O)[C@H](CC(C)C)NC(=O)[C@H](Cc2ccccc2)NC(=O)[C@H](Cc2c[nH]c3ccccc23)NC(=O)[C@H](CCSC)NC(=O)CCCNC(=O)C[C@@H](C(=O)O)NC(=O)[C@H](Cc2c[nH]c3ccccc23)NC(=O)[C@H](Cc2ccccc2)NC(=O)[C@H](CS)NC1=O [compound 147] (HELM PEPTIDE1{[O=C(CCCN[*:1])[*:2]].M.W.F.L.I.C.F.W.D}$PEPTIDE1,PEPTIDE1,1:R1-10:R3$$$V2.0)",> 30,105,> 30,
CC[C@H](C)[C@H](NC(=O)[C@H](CC(C)C)NC(=O)[C@H](Cc1ccccc1)NC(=O)[C@H](Cc1c[nH]c2ccccc12)NC(=O)[C@@H](N)CCSC)C(=O)N[C@@H](CCC(N)=O)C(=O)N[C@@H](Cc1ccccc1)C(=O)N[C@@H](Cc1ccc(O)cc1)C(=O)NCC(=O)O [compound 149] (H-MWFLIQFYG-OH),7.5 to 15,104,0.4 to 1,0.75
CC[C@H](C)[C@H](NC(=O)[C@H](Cc1c[nH]c2ccccc12)NC(=O)[C@@H](N)CCSC)C(=O)N[C@@H](CC(C)C)C(=O)N[C@H](C(=O)N[C@H](C(=O)N[C@@H](Cc1ccccc1)C(=O)N[C@@H](Cc1c[nH]c2ccccc12)C(=O)NCC(=O)O)[C@@H](C)O)[C@@H](C)CC [compound 150] (H-MWILITFWG-OH),< 7.5,99.8,> 30,
CC[C@H](C)[C@H](NC(=O)[C@H](CC(C)C)NC(=O)[C@H](Cc1ccccc1)NC(=O)[C@H](Cc1c[nH]c2ccccc12)NC(=O)[C@@H](N)CCSC)C(=O)N[C@@H](CCCCN)C(=O)N[C@@H](Cc1ccccc1)C(=O)N[C@@H](Cc1ccc(O)cc1)C(=O)NCC(=O)O [compound 151] (H-MWFLIKFYG-OH),15 to 22.5,107,0.4 to 1,0.7
CC[C@H](C)[C@H](NC(=O)[C@H](CC(C)C)NC(=O)[C@@H](NC(=O)[C@H](Cc1c[nH]c2ccccc12)NC(=O)[C@@H](N)CCSC)[C@@H](C)CC)C(=O)N[C@@H](CO)C(=O)N[C@@H](Cc1ccc(O)cc1)C(=O)N[C@@H](Cc1c[nH]c2ccccc12)C(=O)NCC(=O)O [compound 152] (H-MWILISYWG-OH),< 7.5,114,> 30,
CC[C@H](C)[C@H](NC(=O)[C@H](CC(C)C)NC(=O)[C@H](Cc1ccccc1)NC(=O)[C@H](Cc1c[nH]c2ccccc12)NC(=O)[C@@H](N)CCSC)C(=O)N[C@@H](CS)C(=O)N[C@@H](Cc1ccccc1)C(=O)N[C@@H](Cc1c[nH]c2ccccc12)C(=O)NCCCC(=O)O [compound 153] (HELM PEPTIDE1{M.W.F.L.I.C.F.W.[O=C(O)CCCN[*:1]]}$$$$V2.0),< 7.5,104,> 30,
CC[C@H](C)[C@H](NC(=O)[C@H](CC(C)C)NC(=O)[C@H](Cc1ccccc1)NC(=O)[C@H](Cc1c[nH]c2ccccc12)NC(=O)[C@@H](N)CCSC)C(=O)N[C@@H](CS)C(=O)N[C@@H](Cc1ccccc1)C(=O)N[C@@H](Cc1c[nH]c2ccccc12)C(=O)NCC(=O)O [compound 154] (H-MWFLICFWG-OH),15 to 22.5,103,> 30,
CC[C@H](C)[C@H](NC(=O)[C@H](CC(C)C)NC(=O)[C@@H](NC(=O)[C@H](Cc1c[nH]c2ccccc12)NC(=O)[C@@H](N)CCSC)[C@@H](C)CC)C(=O)N[C@@H](CO)C(=O)N[C@@H](Cc1ccccc1)C(=O)N[C@@H](Cc1c[nH]c2ccccc12)C(=O)NCC(=O)O [compound 155] (H-MWILISFWG-OH),> 30,97,> 30,
CC[C@H](C)[C@H](NC(=O)[C@H](CC(C)C)NC(=O)[C@H](C)NC(=O)[C@H](Cc1c[nH]c2ccccc12)NC(=O)[C@@H](N)CCSC)C(=O)N[C@@H](CO)C(=O)N[C@@H](Cc1ccccc1)C(=O)N[C@@H](Cc1c[nH]c2ccccc12)C(=O)NCC(=O)O [compound 156] (H-MWALISFWG-OH),< 7.5,102,> 30,
CC[C@H](C)[C@H](NC(=O)[C@H](C)NC(=O)[C@H](Cc1ccccc1)NC(=O)[C@H](Cc1c[nH]c2ccccc12)NC(=O)[C@@H](N)CCSC)C(=O)N[C@@H](CO)C(=O)N[C@@H](Cc1ccccc1)C(=O)N[C@@H](Cc1c[nH]c2ccccc12)C(=O)NCC(=O)O [compound 157] (H-MWFAISFWG-OH),< 7.5,99.9,> 30,
CSCC[C@H](N)C(=O)N[C@@H](Cc1c[nH]c2ccccc12)C(=O)N[C@@H](Cc1ccccc1)C(=O)N[C@@H](CC(C)C)C(=O)N[C@@H](C)C(=O)N[C@@H](CO)C(=O)N[C@@H](Cc1ccccc1)C(=O)N[C@@H](Cc1c[nH]c2ccccc12)C(=O)NCC(=O)O [compound 158] (H-MWFLASFWG-OH),7.5 to 15,95.6,> 30,
CC[C@H](C)[C@H](NC(=O)[C@H](CC(C)C)NC(=O)[C@H](Cc1ccccc1)NC(=O)[C@H](Cc1c[nH]c2ccccc12)NC(=O)[C@@H](N)CCSC)C(=O)N[C@@H](C)C(=O)N[C@@H](Cc1ccccc1)C(=O)N[C@@H](Cc1c[nH]c2ccccc12)C(=O)NCC(=O)O [compound 159] (H-MWFLIAFWG-OH),< 7.5,107,> 30,
CC[C@H](C)[C@H](NC(=O)[C@H](CC(C)C)NC(=O)[C@H](Cc1ccccc1)NC(=O)[C@H](Cc1c[nH]c2ccccc12)NC(=O)[C@@H](N)CCSC)C(=O)N[C@@H](CO)C(=O)N[C@@H](C)C(=O)N[C@@H](Cc1c[nH]c2ccccc12)C(=O)NCC(=O)O [compound 160] (H-MWFLISAWG-OH),< 7.5,102,> 30,
CC[C@H](C)[C@H](NC(=O)[C@H](CC(C)C)NC(=O)[C@H](Cc1ccccc1)NC(=O)[C@H](Cc1c[nH]c2ccccc12)NC(=O)[C@@H](N)CCSC)C(=O)N[C@@H](CO)C(=O)N[C@@H](Cc1ccccc1)C(=O)N[C@@H](C)C(=O)NCC(=O)O [compound 161] (H-MWFLISFAG-OH),15 to 22.5,103,> 30,
CC[C@H](C)[C@H](NC(=O)[C@H](CC(C)C)NC(=O)[C@H](Cc1ccccc1)NC(=O)[C@H](Cc1c[nH]c2ccccc12)NC(=O)[C@@H](N)CCSC)C(=O)N[C@@H](CO)C(=O)N[C@@H](Cc1ccccc1)C(=O)N[C@@H](Cc1c[nH]c2ccccc12)C(=O)N[C@@H](C)C(=O)O [compound 162] (H-MWFLISFWA-OH),7.5 to 15,104,> 30,
CC[C@H](C)[C@H](NC(=O)[C@H](CC(C)C)NC(=O)[C@H](Cc1ccccc1)NC(=O)[C@H](Cc1c[nH]c2ccccc12)NC(=O)[C@@H](N)CCSC)C(=O)N[C@@H](Cc1c[nH]cn1)C(=O)N[C@@H](Cc1ccccc1)C(=O)N[C@@H](Cc1c[nH]c2ccccc12)C(=O)NCC(=O)O [compound 163] (H-MWFLIHFWG-OH),< 7.5,100,> 30,
